Test results reported in ChEMBL document CHEMBL5579826, “Discovery of autophagy-tethering compounds as potent NLRP3 degraders for IBD Immunotherapy” (Eur J Med Chem, 2024).
Values belong to the molecule of their own block, whether it stands above or below them. The source made the active and inactive calls. The calls are words filed in the database; no cut-off is given here.

Columns and labels:
[1] = target: Interleukin-1 beta (Homo sapiens) (UniProt P01584); assay: Inhibition of IL-1beta in PMA-differentiated human THP-1 cells at 200 nM co-incubated with compound and LPS for 24 hrs by ELISA relative to control; type: cell-based
[2] = target: Interleukin-1 beta (Homo sapiens) (UniProt P01584); assay: Inhibition of IL-1beta in PMA-differentiated human THP-1 cells at 100 nM co-incubated with compound and LPS for 24 hrs by ELISA relative to control; type: cell-based
Mus musculus [3] = assay: Anti-inflammatory activity in DSS-induced colitis C57BL/6 mouse model assessed as reduction in loss of intestinal crypts in colon tissue at 5 to 20 mg/kg, ip administered daily for 10 days by H and E staining based analysis; type: functional, organism-based; details: dose 5-20 mg/kg, time 10.0 day
Mus musculus [4] = assay: Anti-inflammatory activity in DSS-induced colitis C57BL/6 mouse model assessed as reduction in colon tissue shortening at 5 to 20 mg/kg, ip administered daily for 10 days; type: functional, organism-based; details: dose 5-20 mg/kg, time 10.0 day
[5] = Half life in C57BL/6J mouse at 5 mg/kg, ip measured for 24 hrs by LC-MS/MS analysis; type: ADME, organism-based; details: in vivo
[6] = AUC (0 to t) in C57BL/6J mouse at 5 mg/kg, iv measured for 24 hrs by LC-MS/MS analysis; type: ADME, organism-based; details: in vivo
THP-1 [7] = assay: Cytotoxicity against PMA-differentiated human THP-1 cells assessed as reduction in cell viability at 50 to 5000 nM incubated for 24 hrs by MTT assay; type: toxicity, cell-based; details: thp-1, 24 h, 5 µM, dose 50-5000 nM
[8] = AUC (0 to infinity) in C57BL/6J mouse at 5 mg/kg, ip measured for 24 hrs by LC-MS/MS analysis; type: ADME, organism-based; details: in vivo
[9] = Cmax in C57BL/6J mouse at 5 mg/kg, ip measured for 24 hrs by LC-MS/MS analysis; type: ADME, organism-based; details: in vivo
Mus musculus [10] = assay: Anti-inflammatory activity in DSS-induced colitis C57BL/6 mouse model assessed as reduction in intestinal mucosal damage in colon tissue at 5 to 20 mg/kg, ip administered daily for 10 days by H and E staining based analysis; type: functional, organism-based; details: dose 5-20 mg/kg, time 10.0 day
[11] = Volume of distribution at steady state in C57BL/6J mouse at 5 mg/kg, iv measured for 24 hrs by LC-MS/MS analysis; type: ADME, organism-based; details: in vivo, read-out: Vdss
[12] = Apparent volume of distribution in C57BL/6J mouse at 5 mg/kg, iv measured for 24 hrs by LC-MS/MS analysis; type: ADME, organism-based; details: in vivo, read-out: Vz
Mus musculus [13] = assay: Anti-inflammatory activity in DSS-induced colitis C57BL/6 mouse model harboring NLRP3 KO assessed as reduction in IL-1beta level at 20 mg/kg, ip administered daily for 10 days […]; type: functional, organism-based; details: time 10.0 day
[14] = AUC (0 to t) in C57BL/6J mouse at 5 mg/kg, ip measured for 24 hrs by LC-MS/MS analysis; type: ADME, organism-based; details: in vivo
Mus musculus [15] = assay: Anti-inflammatory activity in DSS-induced colitis C57BL/6 mouse model assessed as reduction in IL-1beta level in colon tissue at 5 to 20 mg/kg, ip administered daily for 10 days by IHC analysis; type: functional, organism-based; details: dose 5-20 mg/kg, time 10.0 day
Mus musculus [16] = assay: Anti-inflammatory activity in DSS-induced colitis C57BL/6 mouse model harboring NLRP3 KO assessed as reduction in intestinal mucosal damage in colon tissue at 20 mg/kg, ip administered daily for 10 days by H and E staining based analysis; type: functional, organism-based; details: time 10.0 day
THP-1 [17] = assay: Effect on NLRP3 mRNA expression in PMA-differentiated human THP-1 cells co-incubated with compound and LPS for 24 hrs by qRT-PCR analysis; type: functional, cell-based
Mus musculus [18] = assay: Anti-inflammatory activity in DSS-induced colitis C57BL/6 mouse model assessed as reduction in NLRP3 level in colon tissue at 5 to 20 mg/kg, ip administered daily for 10 days by IHC analysis; type: functional, organism-based; details: dose 5-20 mg/kg, time 10.0 day
[19] = Half life in C57BL/6J mouse at 5 mg/kg, iv measured for 24 hrs by LC-MS/MS analysis; type: ADME, organism-based; details: in vivo
[20] = Clearance in C57BL/6J mouse at 5 mg/kg, iv measured for 24 hrs by LC-MS/MS analysis; type: ADME, organism-based; details: in vivo
Mus musculus [21] = assay: Anti-inflammatory activity in DSS-induced colitis C57BL/6 mouse model harboring NLRP3 KO assessed as reduction in loss of intestinal crypts in colon tissue at 20 mg/kg, ip administered daily for 10 days by H and E staining based analysis; type: functional, organism-based; details: time 10.0 day
Mus musculus [22] = assay: Anti-inflammatory activity in DSS-induced colitis C57BL/6 mouse model harboring NLRP3 KO assessed as reduction in inflammatory cell infiltration in colon tissue at 20 mg/kg, ip administered daily for 10 days by H and E staining based analysis; type: functional, organism-based; details: time 10.0 day
Mus musculus [23] = assay: Anti-inflammatory activity in DSS-induced colitis C57BL/6 mouse model assessed as reduction in weight loss at 5 to 20 mg/kg, ip administered daily for 10 days; type: functional, organism-based; details: dose 5-20 mg/kg, time 10.0 day
Mus musculus [24] = assay: Anti-inflammatory activity in DSS-induced colitis C57BL/6 mouse model harboring NLRP3 KO assessed as reduction in colon length shortening at 20 mg/kg, ip administered daily for 10 days; type: functional, organism-based; details: time 10.0 day
Mus musculus [25] = assay: Anti-inflammatory activity in DSS-induced colitis C57BL/6 mouse model assessed as suppression of disease activity index administered intraperitoneally daily for 10 days; type: functional, organism-based; details: dose 5-20 mg/kg, route ip, time 10.0 day
Mus musculus [26] = assay: Anti-inflammatory activity in DSS-induced colitis C57BL/6 mouse model assessed as reduction in inflammatory cell infiltration in colon tissue at 5 to 20 mg/kg, ip administered daily for 10 days by H and E staining based analysis; type: functional, organism-based; details: dose 5-20 mg/kg, time 10.0 day
[27] = Oral bioavailability in C57BL/6J mouse at 5 mg/kg measured for 24 hrs by LC-MS/MS analysis; type: ADME, organism-based; details: in vivo
[28] = AUC (0 to infinity) in C57BL/6J mouse at 5 mg/kg, iv measured for 24 hrs by LC-MS/MS analysis; type: ADME, organism-based; details: in vivo

Chain of Interleukin-1 beta (Homo sapiens) (P01584 117-269 limits assumed): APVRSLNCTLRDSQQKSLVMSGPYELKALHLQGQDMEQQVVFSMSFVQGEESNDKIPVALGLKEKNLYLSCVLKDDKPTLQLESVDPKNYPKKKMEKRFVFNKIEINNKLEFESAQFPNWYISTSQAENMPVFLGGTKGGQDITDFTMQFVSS

inhibition [1]: 35.3% | inhibition [2]: 20.4%
SMILES: COc1cc(/C=C2/C(=O)N(CCCCCCCCCCCCOc3ccc(S(=O)(=O)NC(=O)Nc4c5c(cc6c4CCC6)CCC5)cc3)c3ccc(Br)cc32)cc(Br)c1O

inhibition [1]: 32.7% | inhibition [2]: 57.6%
SMILES: COc1cc(/C=C2/C(=O)N(CCOCCOCCOCCOc3ccc(S(=O)(=O)NC(=O)Nc4c5c(cc6c4CCC6)CCC5)cc3)c3ccc(Br)cc32)cc(Br)c1O

inhibition [1]: 23.1% | inhibition [2]: 39%
SMILES: COc1ccc(Cl)cc1C(=O)NCCc1ccc(S(=O)(=O)NCCOCCN2C(=O)/C(=C/c3cc(Br)c(O)c(OC)c3)c3cc(Br)ccc32)cc1

inhibition [1]: 40.8% | inhibition [2]: 19.2%
SMILES: COc1cc(/C=C2/C(=O)N(CCCCOc3ccc(S(=O)(=O)NC(=O)Nc4c5c(cc6c4CCC6)CCC5)cc3)c3ccc(Br)cc32)cc(Br)c1O

inhibition [1]: -4.9% | inhibition [2]: 8.2%
SMILES: COc1ccc(Cl)cc1C(=O)NCCc1ccc(S(=O)(=O)NCCOCCOCCOCCN2C(=O)/C(=C/c3cc(Br)c(O)c(OC)c3)c3cc(Br)ccc32)cc1

inhibition [1]: 19.5% | inhibition [2]: 14.8%
SMILES: O=C(Nc1c2c(cc3c1CCC3)CCC2)NS(=O)(=O)c1ccc(OCCCCCCCCCCCCN2C(=O)/C(=C/c3cc(Br)c(O)c(Br)c3)c3cc(Br)ccc32)cc1

inhibition [1]: 45.2% | inhibition [2]: 17.8%
SMILES: O=C(Nc1c2c(cc3c1CCC3)CCC2)NS(=O)(=O)c1ccc(OCCOCCOCCN2C(=O)/C(=C/c3cc(Br)c(O)c(Br)c3)c3cc(Br)ccc32)cc1

inhibition [1]: 39.6% | inhibition [2]: -5.3%
SMILES: O=C(Nc1c2c(cc3c1CCC3)CCC2)NS(=O)(=O)c1ccc(OCCCCCCCCN2C(=O)/C(=C/c3cc(Br)c(O)c(Br)c3)c3cc(Br)ccc32)cc1

inhibition [1]: 37.9% | inhibition [2]: -7.2%
SMILES: COc1ccc(Cl)cc1C(=O)NCCc1ccc(S(=O)(=O)NCCCCCCCCN2C(=O)/C(=C/c3cc(Br)c(O)c(OC)c3)c3cc(Br)ccc32)cc1

inhibition [1]: 73.6% | half-life [5]: 1.26 h | AUC(0-t) at 24 h [6]: 2960 ng·h/mL | AUC(0-inf) [8]: 562 ng·h/mL | Cmax [9]: 555 ng/mL | Vd [11]: 0.39 L/kg | Vd [12]: 2.31 L/kg | AUC(0-t) at 24 h [14]: 551 ng·h/mL | half-life [19]: 0.94 h | clearance [20]: 28.4 mL/min/kg | inhibition [2]: 45.8% | bioavailability [27]: 19% | AUC(0-inf) [28]: 2970 ng·h/mL
SMILES: O=C(Nc1c2c(cc3c1CCC3)CCC2)NS(=O)(=O)c1ccc(OCCOCCOCCOCCN2C(=O)/C(=C/c3cc(Br)c(O)c(Br)c3)c3cc(I)ccc32)cc1
Activity (Mus musculus [3]): Active | Activity (Mus musculus [4]): Active | Activity (THP-1 [7]): Non-Toxic | Activity (Mus musculus [10]): Active | Activity (Mus musculus [13]): inactive | Activity (Mus musculus [15]): Active | Activity (Mus musculus [16]): inactive | Activity (THP-1 [17]): inactive | Activity (Mus musculus [18]): Active | Activity (Mus musculus [21]): inactive | Activity (Mus musculus [22]): inactive | Activity (Mus musculus [23]): Active | Activity (Mus musculus [24]): inactive | Activity (Mus musculus [25]): Dose-Dependent Effect | Activity (Mus musculus [26]): Active

inhibition [1]: 67.3% | inhibition [2]: 20.5%
SMILES: O=C(Nc1c2c(cc3c1CCC3)CCC2)NS(=O)(=O)c1ccc(OCCOCCN2C(=O)/C(=C/c3cc(Br)c(O)c(Br)c3)c3cc(Br)ccc32)cc1

inhibition [1]: 7.9% | inhibition [2]: 40.1%
SMILES: O=C(Nc1c2c(cc3c1CCC3)CCC2)NS(=O)(=O)c1ccc(OCCCCCCCCCCCCN2C(=O)/C(=C/c3cc(Br)c(O)c(Br)c3)c3cc(I)ccc32)cc1

inhibition [1]: 66.6% | inhibition [2]: 6.7%
SMILES: O=C(Nc1c2c(cc3c1CCC3)CCC2)NS(=O)(=O)c1ccc(OCCOCCOCCOCCN2C(=O)/C(=C/c3cc(Br)c(O)c(Br)c3)c3cc(Br)ccc32)cc1

inhibition [1]: 36.2% | inhibition [2]: 50.4%
SMILES: COc1ccc(Cl)cc1C(=O)NCCc1ccc(S(=O)(=O)NCCCCCN2C(=O)/C(=C/c3cc(Br)c(O)c(OC)c3)c3cc(Br)ccc32)cc1

inhibition [1]: 19.2% | inhibition [2]: 27.7%
SMILES: COc1cc(/C=C2/C(=O)N(CCCCCCCCOc3ccc(S(=O)(=O)NC(=O)Nc4c5c(cc6c4CCC6)CCC5)cc3)c3ccc(Br)cc32)cc(Br)c1O

inhibition [1]: 28% | inhibition [2]: 7.3%
SMILES: COc1ccc(Cl)cc1C(=O)NCCc1ccc(S(=O)(=O)NCCCCCCCCCCN2C(=O)/C(=C/c3cc(Br)c(O)c(OC)c3)c3cc(Br)ccc32)cc1

inhibition [1]: 59.2% | inhibition [2]: 35.6%
SMILES: COc1cc(/C=C2/C(=O)N(CCOCCOc3ccc(S(=O)(=O)NC(=O)Nc4c5c(cc6c4CCC6)CCC5)cc3)c3ccc(Br)cc32)cc(Br)c1O

inhibition [1]: 39.1% | inhibition [2]: 16.5%
SMILES: COc1cc(/C=C2/C(=O)N(CCOCCOCCOc3ccc(S(=O)(=O)NC(=O)Nc4c5c(cc6c4CCC6)CCC5)cc3)c3ccc(Br)cc32)cc(Br)c1O

inhibition [1]: 48.5% | inhibition [2]: 43.1%
SMILES: O=C(Nc1c2c(cc3c1CCC3)CCC2)NS(=O)(=O)c1ccc(OCCCCN2C(=O)/C(=C/c3cc(Br)c(O)c(Br)c3)c3cc(I)ccc32)cc1

inhibition [1]: 43.1% | inhibition [2]: 11%
SMILES: COc1ccc(Cl)cc1C(=O)NCCc1ccc(S(=O)(=O)NCCOCCOCCN2C(=O)/C(=C/c3cc(Br)c(O)c(OC)c3)c3cc(Br)ccc32)cc1

inhibition [1]: 49.2% | inhibition [2]: 42.8%
SMILES: O=C(Nc1c2c(cc3c1CCC3)CCC2)NS(=O)(=O)c1ccc(OCCCCN2C(=O)/C(=C/c3cc(Br)c(O)c(Br)c3)c3cc(Br)ccc32)cc1

inhibition [1]: 41.7% | inhibition [2]: 50.5%
SMILES: O=C(Nc1c2c(cc3c1CCC3)CCC2)NS(=O)(=O)c1ccc(OCCOCCOCCN2C(=O)/C(=C/c3cc(Br)c(O)c(Br)c3)c3cc(I)ccc32)cc1

inhibition [1]: 98.2% | inhibition [2]: 70.4%
SMILES: O=C(Nc1c2c(cc3c1CCC3)CCC2)NS(=O)(=O)c1ccc(OCCOCCN2C(=O)/C(=C/c3cc(Br)c(O)c(Br)c3)c3cc(I)ccc32)cc1

inhibition [1]: 26.5% | inhibition [2]: 41.9%
SMILES: O=C(Nc1c2c(cc3c1CCC3)CCC2)NS(=O)(=O)c1ccc(OCCCCCCCCN2C(=O)/C(=C/c3cc(Br)c(O)c(Br)c3)c3cc(I)ccc32)cc1
